Measurements as given in patent US20240226108A9, “TREATMENT OF BRAIN INJURIES” (ASTON UNIVERSITY, priority 2021, published 2024).

Columns and labels:
[1] = tested on: rat brain tissue slices; assay: calcein AM cell viability staining of brain slices subjected to hypoxia; type: cell-based; details: calcein AM MFI, Maraviroc 50 μM, trifluoperazine 100 μM, 1 hour pre-treatment, 30 minutes hypoxia; for Significant? (Dunn's multiple comparisons test vs. vehicle control): Alpha 0.05; for Mean rank 2 (mean rank of treatment group, Kruskal-Wallis): vehicle control mean rank 11.73
Method: Brain slices were pre-treated for 1 hour with final concentrations of Maraviroc (50 μM), trifluoperazine (100 μM), and both drugs trifluoperazine and maraviroc against vehicle control for 1 hour, before being subjected to 30 minutes of hypoxia.
Damage to the brain tissue was determined by staining the tissue with acetoxymethyl calcein (calcein AM), available from Abcam Ltd, Cambridge, UK and Thermo Fisher, USA. The assay is a quantitative assay used to determine cell viability.

[2] = target: CCR5 (Mus musculus, UniProt P51682); details: compared with CCR5 knockdown; cited from earlier work
Sequence of CCR5 (P51682 whole entry): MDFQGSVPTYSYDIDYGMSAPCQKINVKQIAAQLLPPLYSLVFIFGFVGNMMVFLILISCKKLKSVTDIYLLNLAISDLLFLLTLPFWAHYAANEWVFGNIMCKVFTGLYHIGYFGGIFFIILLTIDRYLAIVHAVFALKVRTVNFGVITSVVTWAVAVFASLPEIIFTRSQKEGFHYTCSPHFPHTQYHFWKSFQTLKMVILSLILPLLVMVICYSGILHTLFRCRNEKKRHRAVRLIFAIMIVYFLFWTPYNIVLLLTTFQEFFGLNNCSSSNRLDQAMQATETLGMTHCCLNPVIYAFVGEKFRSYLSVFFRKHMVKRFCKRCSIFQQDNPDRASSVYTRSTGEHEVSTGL

| Compound | Significant? (Dunn's multiple comparisons test vs. vehicle control) [1] | Mean rank diff. (Dunn's multiple comparisons test, vehicle control vs. treatment) [1] | Summary (significance stars, Dunn's multiple comparisons test vs. vehicle control) [1] | Z (Dunn's multiple comparisons test vs. vehicle control) [1] | Mean rank 2 (mean rank of treatment group, Kruskal-Wallis) [1] | motor recovery post-stroke and cognitive decline post traumatic brain injury [2] |
| --- | --- | --- | --- | --- | --- | --- |
| CN1CCN(CCCN2c3ccccc3Sc3ccc(C(F)(F)F)cc32)CC1 [TFP, trifluoperazine] | Yes | −25.87 | *** ((***) p≤001) | 4.056 | 37.60 |  |
| Maraviroc | Yes | −22.07 | ** ((**) p≤0.01) | 3.460 | 33.80 | produced similar effects on motor recovery post-stroke and cognitive decline post traumatic brain injury |
